From US6346543B1, “Use of a taxoid to treat abnormal cell proliferation in the brain” (priority 1998, dated 2002)
Several values for one entry are separate records, joined by “and”; a condition that tells them apart may be missing. Equal entries are not always repeated.

How the values were obtained:
[1] = test system: intracranially implanted human glioblastoma U251; test: Antitumor activity against intracranially implanted U251 glioblastoma in NCr-nu mice (RP-36); assay type: in vivo; settings: for DAYS OF DEATH: individual animals
Protocol: The treatment schedule of the intracranially implanted U251 glioblastoma cells was iv, once daily, every sixth day for three treatments (q6d×3), beginning on day four post-implant. […] For the intracranially implanted studies, the compounds were evaluated based on their ability to increase the life span of the animals. The positive control used for both of these tumor models was nitrosourea.
The oversight committee was the Southern Research Institutional Animal Care and Use Committee; the protocol used was IACUC No. 96-8-50.
(§1) Product (Ia) was prepared in 5% ethanol, 5% tween 80, 90% D5W
(§2) Product (Ia) was administered in 0.4 ml/mouse based on a total body weight average.
(§3) Nitrosourea was administered 0.1 ml/10 g of body weight.
(§4) Any intracranially implanted animal that appeared to be moribund was euthanized for humane purposes. Since efficacy studies fall within this category of basic research, experiment termination was based on resultants that were determined to be optimal.
Six to eight week old athymic NCr-nu female mice were used for the intracranially implanted U251 trials.
The cells were injected into the cerebrum to the right of the midline with a 25 gauge, ⅜ inch, stainless steel needle. Cultured cells were used for the U251 experiment (RP-36). The treatment schedule was q6d×3, iv, beginning on day four, post-implant. […] The treatment schedule was q4d×3, iv, beginning on day two, post-implant. Nitrosourea was given in each experiment for comparative purposes because of its known activity against CNS tumors.

[2] = test system: intracranially implanted human glioblastoma SF-295; test: Antitumor activity against intracranially implanted SF-295 glioblastoma in NCr-nu mice (RP-38); assay type: in vivo; settings: for DAYS OF DEATH: individual animals
Description: Four studies were initiated to evaluate the response of U251 and SF-295 glioblastomas to treatment with product (Ia). In the two studies, U251 and SF-295 glioblastomas were initiated from intracranially implanted cells at a volume of 10^6 cells per mouse. The treatment schedule of the intracranially implanted U251 glioblastoma cells was iv, once daily, every sixth day for three treatments (q6d×3), beginning on day four post-implant. The treatment schedule of the intracranially implanted SF-295 glioblastoma cells was iv, once daily, every fourth day for three treatments (q4d×3), beginning on day two post-implant. For the intracranially implanted studies, the compounds were evaluated based on their ability to increase the life span of the animals. The positive control used for both of these tumor models was nitrosourea.
In these experiments, general DCTD, NCI techniques and procedures for in vivo efficacy studies were modified for special application (In Vivo Cancer Models, NIH Publication No. 84-2635, 1984). These studies were conducted in approved facilities (AAALAC Registration No. 000643, AALAS Membership No. 840723001, USDA Registration No. 64-R-001, OPPR, PHS, NIH, AWA, Assurance No. A3046-01). These facilities are ISO 9001 certified. The oversight committee was the Southern Research Institutional Animal Care and Use Committee; the protocol used was IACUC No. 96-8-50.
as §1
Nitrosourea was prepared in 2% ethanol, 98% physiological saline.
as §2, §3, §4
Six to eight week old athymic NCr-nu female mice were used for the intracranially implanted U251 trials. Six to eight week old athymic NCr-nu male mice were used for the intracranially implanted SF-295 trials.
As previously mentioned, this experiment was designed to evaluate the activity of product (Ia) against intracranially U251 and SF-295 glioblastomas in athymic MCr-nu mice. The dosages for product (Ia) were 30, 20 and 13.4 mg/kg/dose. For the two intracranially implanted experiments, cells were prepared at a concentration of 3.33×10^7 cells per ml of media and injected at a volume of 0.03 ml per mouse. The cells were injected into the cerebrum to the right of the midline with a 25 gauge, ⅜ inch, stainless steel needle. Cultured cells were used for the U251 experiment (RP-36). The treatment schedule was q6d×3, iv, beginning on day four, post-implant. A tumor brei, made from solid tumor, was used for the SF-295 experiment (RP-38). The treatment schedule was q4d×3, iv, beginning on day two, post-implant. Nitrosourea was given in each experiment for comparative purposes because of its known activity against CNS tumors. The dosages were 27, 18 and 12 mg/kg/dose and the treatment schedule was the same as the treatment schedule for product (Ia) in each experiment.

[3] = 18.0 mg/kg/dose IV Q6D×3(4), listed as nitrosourea
[4] = 18.0 mg/kg/dose IV Q4D×3(2), listed as nitrosourea
[5] = 27.0 mg/kg/dose IV Q4D×3(2), listed as nitrosourea

## NC(=O)NN=O [Nitrosourea, reference compound]
[1]; 12.0 mg/kg/dose IV Q6D×3(4)
  122-DAY SURV./TOTAL: 0/10
  % ILS: +51%
  MEDIAN DAY OF DEATH: 51.5 days
  DAYS OF DEATH: 69 day (2×) and 80 day and 41 day and 45 day and 49 day (3×) and 54 day and 66 day
[1]; 12.0 mg/kg/dose IV Q6D×3(4), listed as nitrosourea
  % ILS: 51%
[1]; 18.0 mg/kg/dose IV Q6D×3(4)
  122-DAY SURV./TOTAL: 7/10
  % ILS: +205%
  MEDIAN DAY OF DEATH: 104.0 days
  DAYS OF DEATH: 94 day and 104 day (2×)
[1]; [3]
  122-DAY SURV./TOTAL: seven of ten
  % ILS: 205%
[1]; 27.0 mg/kg/dose IV Q6D×3(4)
  122-DAY SURV./TOTAL: 10/10
[1]; 27.0 mg/kg/dose IV Q6D×3(4), listed as nitrosourea
  122-DAY SURV./TOTAL: ten of ten
[1]; iv q6d×3, U251 experiment RP-36
  MTD: 27 mg/kg/dose
[2]; 12.0 mg/kg/dose IV Q4D×3(2)
  68 DAY SURV./TOTAL: 0/10
  % ILS: +106%
  MEDIAN DAY OF DEATH: 33.0 days
  DAYS OF DEATH: 33 day (5×) and 40 day and 22 day and 23 day and 26 day (2×)
[2]; 12.0 mg/kg/dose IV Q4D×3(2), listed as nitrosourea
  % ILS: 106%
[2]; 18.0 mg/kg/dose IV Q4D×3(2)
  68 DAY SURV./TOTAL: 1/10
  % ILS: +131%
  MEDIAN DAY OF DEATH: 37.0 days
  DAYS OF DEATH: 40 day and 41 day and 33 day and 34 day (2×) and 35 day and 37 day (3×)
[2]; [4]
  68 DAY SURV./TOTAL: one 68-day survivor out of ten animals
  % ILS: 131%
[2]; 27.0 mg/kg/dose IV Q4D×3(2)
  68 DAY SURV./TOTAL: 2/10
  % ILS: +50%
  MEDIAN DAY OF DEATH: 24.0 days
  DAYS OF DEATH: 64 day and 15 day and 16 day (2×) and 19 day and 29 day and 37 day and 56 day
[2]; [5]
  68 DAY SURV./TOTAL: two 68-day survivors out of ten animals
  % ILS: 50%
[2]; in vivo, iv
  MTD: 27 mg/kg/dose
